The source of these data is patent publication US11173158B2, “Medicinal agent and beverage/food for preventing cerebral dysfunction and improving same” (PTC Therapeutics MP, Inc., priority 2010, dated 2021).

“Also recorded” adds a separate entry of the source.

The test system of one data set is RBL2H3 cells. Description: Total amount of biopterin in RBL2H3 cells after addition to culture medium. It is filed as cell-based. The note with it: 100 μM added, 0-180 min, FIG. 2B. The method, then:
(§1) In Example 1, where PC12 cells and RBL2H3 cells were used as aromatic monoamine synthesizing cells and sepiapterin was added to a culture medium, evaluation was made for a total amount of biopterin in the cells (a total amount of tetrahydrobiopterin, and its oxidant, dihydrobiopterin and biopterin, the same shall apply hereinafter).
(§2) The PC12 cells are cultured cells having properties of a neuron and it is known that they synthesize dopamine, noradrenaline and adrenaline, with tetrahydrobiopterin used as a coenzyme. The RBL2H3 cells are cultured cells having properties of a mast cell and it is known that they synthesize serotonin, with tetrahydrobiopterin used as a coenzyme. […]
(§3) A total amount of biopterin in the cells was measured by using a system of high performance liquid chromatography/fluorescence detection (HPLC/FD) according to the Fukusima-Nixon method (refer to Non-Patent Document 8).
(§4) A principle of the Fukushima-Nixon method is as follows. Upon oxidation with iodine under strong acid or alkaline conditions, tetrahydrobiopterin is quantitatively oxidized into oxidized-form biopterin under acid conditions and oxidized into oxidized-form pterin in which a side chain in the 6th-class position is removed under alkaline conditions. […] The oxidized-form biopterin and the oxidized-form pterin have strong natural fluorescent characteristics (excitation: 350 nm, fluorescence: 450 nm). […]

For a further data set, the system named is SD rats. Description: Amounts of tetrahydrobiopterin, serotonin and 5-hydroxyindoleacetic acid in rat brain after oral administration. It is filed as in vivo. The note with it: 0-8 hours after administration; for amount of tetrahydrobiopterin in the brain: FIG. 5A. Here is the method: In Example 4, rats were used to measure amounts of tetrahydrobiopterin, serotonin and 5-hydroxyindoleacetic acid in the brain on administration of sepiapterin. Rats used were SD rats (7-8 week old, males) purchased from Japan SLC, Inc. The rats were kept in a dark place for 12 hours and in a light place for 12 hours and fed ad libitum with a diet (“MM-3” made by Funabashi Farm Co., Ltd.) and sterilized tap water as drinking water. Sepiapterin or tetrahydrobiopterin was dissolved in 10 mM hydrochloric acid, the resultant of which was orally administered to the rats (n=6) under diethylether anesthesia. After 1, 1.5, 2, 3, 4, 6 and 8 hours, the brains were excised under pentobarbital sodium anesthesia (pentobarbital was intraperitoneally administered at 40 mg/kg five minutes before), and the brain was divided into two portions at the median line to obtain left and right brain samples. Rats not treated with sepiapterin or tetrahydrobiopterin were used as samples at 0 hours after administration according to the same procedures. […] Amounts of serotonin and 5-hydroxyindoleacetic acid in the brain were calculated by adding 3.5 times the volume of 1.43% ascorbic acid-containing 100 mM hydrochloric acid which contains N-methyl serotonin as an internal standard to a right brain sample, homogenizing brain tissues, adding […] (final concentration of 5.5%) thereto, ice-cooling the resultant for removing protein and treating a supernatant thereof in a system of high performance liquid chromatography/fluorescence detection (HPLC/FD), (refer to Non-Patent Document 9). In the high performance liquid chromatography, as with Example 1, etc., “Fine-SIL-C18-5T (made by JASCO Corporation)” was used as a column. […] In the system of high performance liquid chromatography/fluorescence detection (HPLC/FD), 5-hydroxytryptophan (5HTP), serotonin, N-methyl serotonin, tryptophan and 5-hydroxyindoleacetic acid are eluted in the above order, thus making it possible to determine quantitatively these substances at the same time.

Another data set concerns PC12 cells. Description: Total amount of biopterin in PC12 cells after addition to culture medium. Type of data set: cell-based. The note with it: 100 μM added, 0-180 min, FIG. 2A. The method, then: as §1, §2, §3, §4
A further data set deals with hph-1 mice. Description: Amount of serotonin in brain of hph-1 mice after oral administration. Conditions: oral 20 mg/kg twice (2 h apart), brain 6 hours after first administration, FIG. 6. It is filed as in vivo, mouse. The method, then:
The mice used were those of “hph-1” which were provided by Dr. […] (Institute of Metabolic Disease, Baylor University Medical Center, Dallas, Tex. 75226, USA). The mice are characterized as being defective in biosynthesis functions of tetrahydrobiopterin, with the level of tetrahydrobiopterin in the brain being from 40 to 50% as compared with ordinary mice. The mice were bred in a dark place for 12 hours and also in a light place for 12 hours and fed ad libitum with a diet (“MM-3” made by Funabashi Farm Co., Ltd.) and sterilized tap water as drinking water. An amount of serotonin was measured by dissolving sepiapterin or tetrahydrobiopterin in 0.01 M hydrochloric acid, thereafter administering orally each of the resultants at 20 mg/kg to the mice, giving another oral administration at the same dose two hours thereafter, and excised the brains from each mouse six hours after the first administration (n=7 in a group treated with sepiapterin, and n=8 in a group treated with tetrahydrobiopterin). […] In a control group, measurement was made similarly by orally administering 0.01M hydrochloric acid.

Another data set deals with NZB mice. Description: Forced swim test in mice. Type of data set: in vivo, mouse. Conditions: intraperitoneal single dose 10 mg/kg, test after 40 minutes, five-minute swimming, FIG. 7. Here is the method: In Example 6, the mice were subjected to a forced swim test after administration of sepiapterin. The forced swim test of the mice is a test method for evaluating antidepressant effects, and length of “immobile” time is a criterion of depression. Evaluation is made in such a manner that the shorter the “immobile” time is, the greater the antidepressant effects are. The mice used were NZB mice purchased from. Japan SLC, Inc (7-week old males). The mice were maintained in a dark place for 12 hours and in a light place for 12 hours and fed ad libitum with a diet (“MM-3” made by Funabashi Farm Co., Ltd.) and sterilized tap water as drinking water, except when they were constrained in an experiment. The mice are characterized in that they are more likely to develop an auto-immune disease with advancement of age. […] The mice which had been subjected to 15-minute preliminary swimming without administration of a drug, etc., on the previous day were used in the experiment. The mice were intraperitoneally administered tetrahydrobiopterin (n=7) or sepiapterin (n=5) at a single dose of 10 mg/kg and subjected to a forced swim test after 40 minutes to measure “immobile” time. The test was conducted under dim light by using a 15 cm-across and 15 cm-deep water tank kept at a temperature of 22° C. “Immobile” time was measured by calculating an added value of “immobile” time during five-minute-swimming. […]

On to `C[C@H](O)[C@H](O)[C@H]1CNc2nc(N)[nH]c(=O)c2N1` [tetrahydrobiopterin, Tetrahydrobiopterin], for which the “change in the total amount of biopterin in the cells” value in the data set on RBL2H3 cells and with PC12 cells was “substantially no change; also recorded: slight increase” each time. Besides, the “amount of tetrahydrobiopterin in the brain” value in the data set on SD rats is recorded as “did not show an increase”.

In the case of `C[C@H](O)C(=O)C1=Nc2c(nc(N)[nH]c2=O)NC1` [sepiapterin, 7,8-Dihydro-6-[(S)-2-hydroxy-1-oxopropyl]-pterin], the “change in the total amount of biopterin in the cells” value with RBL2H3 cells and in the data set with PC12 cells was “remarkable increase” each time. The “amount of serotonin in the brain” value in the data set on hph-1 mice is reported as “significant increase”; with SD rats (FIG. 5B) it was “significantly increased”. Further, the “amount of tetrahydrobiopterin in the brain” value in the data set with SD rats was “significant increase”. Further, the “"immobile" time in forced swim test” value with NZB mice is listed as “significantly short”.
